# Earlier results, collected in patent US20240117023A1, “METHOD” (Agency for Science, Technology and Research, priority 2021, published 2024).
# Test system: RA and OA animal models
# Details: in vivo; cited from earlier work
smiles,measurement,value
CN1C(=O)N(C[C@H](C(=O)NO)[C@@H](CC2CCCC2)C(=O)N2CCCCC2)C(=O)C1(C)C [Trocade],effect in animal models,protective effects against RA and OA
